According to ChEMBL document CHEMBL3994662, “In vivo instability of platensimycin and platencin: Synthesis and biological evaluation of urea- and carbamate-platensimycin” (Bioorg Med Chem, 2017):
Values after ≈ are worked out from the molar mass of the structure shown. Blank lines part the entries; values can stand above or below the molecule they belong to.

Columns and labels:
[1] = Drug level in mouse hepatic microsomes treated with platensimycin at 1 uM up to 60 mins in absence of NADPH by LC-MS/MS analysis; assay type: ADME, Liver, Microsome; conditions: 1 h
[2] = Drug level in mouse hepatic microsomes treated with platensimycin at 1 uM up to 60 mins in presence of NADPH by LC-MS/MS analysis; assay type: ADME, Liver, Microsome; conditions: 1 h
Staphylococcus aureus = experiment: Antibacterial activity against Staphylococcus aureus ATCC 25923 after 18 hrs by broth dilution method; assay type: functional; conditions: ATCC 25923, 18 h
Micrococcus luteus = experiment: Antibacterial activity against Micrococcus luteus ATCC 9431 after 18 hrs by broth dilution method; assay type: functional; conditions: ATCC 9431, 18 h
Liver [3] = experiment: In vivo stability in C57Bl/6 mouse liver assessed as compound hydrolysis at 10 mg/kg, iv administered as single dose measured after 60 mins by LC-MS/MS analysis; assay type: ADME, organism-based; conditions: 1 h
[4] = In vivo stability in C57Bl/6 mouse urine assessed as compound hydrolysis at 10 mg/kg, iv administered as single dose measured after 60 mins by LC-MS/MS analysis; assay type: ADME, organism-based; conditions: 1 h
Kidney [5] = experiment: Drug uptake in C57Bl/6 mouse kidney at 10 mg/kg, iv administered as single dose measured after 60 mins by LC-MS/MS analysis; assay type: ADME, organism-based; conditions: in vivo, 1 h
Plasma [6] = experiment: Drug uptake in C57Bl/6 mouse plasma at 10 mg/kg, iv administered as single dose measured after 60 mins by LC-MS/MS analysis; assay type: ADME, organism-based; conditions: in vivo, 1 h
[7] = Drug level in C57Bl/6 mouse urine at 10 mg/kg, iv administered as single dose measured after 60 mins by LC-MS/MS analysis; assay type: ADME, organism-based; conditions: mouse, in vivo, 1 h
Liver [8] = experiment: Drug uptake in C57Bl/6 mouse liver at 10 mg/kg, iv administered as single dose measured after 60 mins by LC-MS/MS analysis; assay type: ADME, organism-based; conditions: in vivo, 1 h
Plasma [9] = experiment: In vivo stability in C57Bl/6 mouse plasma assessed as compound hydrolysis at 10 mg/kg, iv administered as single dose measured after 60 mins by LC-MS/MS analysis; assay type: ADME, organism-based; conditions: 1 h
Kidney [10] = experiment: In vivo stability in C57Bl/6 mouse kidney assessed as compound hydrolysis at 10 mg/kg, iv administered as single dose measured after 60 mins by LC-MS/MS analysis; assay type: ADME, organism-based; conditions: 1 h
[11] = Elimination half life in C57Bl/6 mouse at 3 mg/kg, iv administered as single dose by LC-MS/MS analysis; assay type: ADME, organism-based; conditions: in vivo, read-out: beta t1/2 (converted)
[12] = In vivo stability in C57Bl/6 mouse adipose tissue assessed as compound hydrolysis at 10 mg/kg, iv administered as single dose measured after 60 mins by LC-MS/MS analysis; assay type: ADME, organism-based; conditions: 1 h
Lung [13] = experiment: In vivo stability in C57Bl/6 mouse lung assessed as compound hydrolysis at 10 mg/kg, iv administered as single dose measured after 60 mins by LC-MS/MS analysis; assay type: ADME, organism-based; conditions: 1 h
Brain = experiment: In vivo stability in C57Bl/6 mouse brain assessed as compound hydrolysis at 10 mg/kg, iv administered as single dose measured after 60 mins by LC-MS/MS analysis; assay type: ADME, organism-based; conditions: 1 h
[14] = Cmax in C57Bl/6 mouse at 10 mg/kg, po administered as single dose via gavage by LC-MS/MS analysis; assay type: ADME, organism-based; set-up: dose 10 mg/kg, route oral; conditions: in vivo
[15] = Oral bioavailability in C57Bl/6 mouse at 10 mg/kg administered as single dose via gavage by LC-MS/MS analysis; assay type: ADME, organism-based; conditions: in vivo
[16] = Drug uptake in C57Bl/6 mouse muscle at 10 mg/kg, iv administered as single dose measured after 60 mins by LC-MS/MS analysis; assay type: ADME, organism-based, Muscle tissue; conditions: in vivo, 1 h
[17] = Ratio of drug level in C57Bl/6 mouse liver to plasma at 10 mg/kg, iv administered as single dose measured after 60 mins by LC-MS/MS analysis; assay type: ADME, organism-based
[18] = Ratio of drug level in C57Bl/6 mouse muscle to plasma at 10 mg/kg, iv administered as single dose measured after 60 mins by LC-MS/MS analysis; assay type: ADME, organism-based, Muscle tissue/plasma
[19] = Ratio of drug level in C57Bl/6 mouse lung to plasma at 10 mg/kg, iv administered as single dose measured after 60 mins by LC-MS/MS analysis; assay type: ADME, organism-based
[20] = Observed clearance in C57Bl/6 mouse at 3 mg/kg, iv administered as single dose by LC-MS/MS analysis; assay type: ADME, organism-based; conditions: in vivo
[21] = Ratio of drug level in C57Bl/6 mouse kidney to plasma at 10 mg/kg, iv administered as single dose measured after 60 mins by LC-MS/MS analysis; assay type: ADME, organism-based
[22] = Elimination half life in C57Bl/6 mouse at 10 mg/kg, po administered as single dose via gavage by LC-MS/MS analysis; assay type: ADME, organism-based; conditions: in vivo, read-out: beta t1/2 (converted)
[23] = In vivo stability in C57Bl/6 mouse muscle assessed as compound hydrolysis at 10 mg/kg, iv administered as single dose measured after 60 mins by LC-MS/MS analysis; assay type: ADME, organism-based, Muscle tissue; conditions: 1 h
[24] = Cmax in C57Bl/6 mouse at 3 mg/kg, iv administered as single dose by LC-MS/MS analysis; assay type: ADME, organism-based; set-up: dose 3 mg/kg, route intravenous; conditions: in vivo
[25] = Drug uptake in C57Bl/6 mouse adipose tissue at 10 mg/kg, iv administered as single dose measured after 60 mins by LC-MS/MS analysis; assay type: ADME, organism-based; conditions: in vivo, 1 h
Lung [26] = experiment: Drug uptake in C57Bl/6 mouse lung at 10 mg/kg, iv administered as single dose measured after 60 mins by LC-MS/MS analysis; assay type: ADME, organism-based; conditions: in vivo, 1 h
[27] = Volume of distribution in C57Bl/6 mouse at 3 mg/kg, iv administered as single dose by LC-MS/MS analysis; assay type: ADME, organism-based; conditions: in vivo
Mus musculus [28] = experiment: AUC (0 to 8 hrs) in C57Bl/6 mouse at 3 mg/kg, iv administered as single dose by LC-MS/MS analysis; assay type: ADME, organism-based; set-up: dose 3 mg/kg, time < 8 hr, route intravenous; conditions: in vivo
Mus musculus [29] = experiment: AUC (0 to 8 hrs) in C57Bl/6 mouse at 10 mg/kg, po administered as single dose via gavage by LC-MS/MS analysis; assay type: ADME, organism-based; set-up: time < 8 hr, dose 10 mg/kg, route oral; conditions: in vivo

Drug metabolism [1]: Metabolite_Detected
Drug metabolism [2]: Metabolite_Detected
SMILES: C[C@]12C[C@@]34C=CC(=O)[C@@](C)(CCC(=O)O)[C@@H]3[C@H](C[C@@H]1C4)O2

MIC (Staphylococcus aureus): > 64 µg/mL
MIC (Micrococcus luteus): 64 µg/mL (≈ 136 µM)
SMILES: COC(=O)c1ccc(O)c(NC(=O)NCC[C@]2(C)C(=O)C=C[C@]34C[C@H]5C[C@H](O[C@@]5(C)C3)[C@H]42)c1O

SMILES: C[C@]12C[C@@]34C=CC(=O)[C@@](C)(CCNC(=O)Oc5c(O)ccc(C(=O)O)c5O)[C@@H]3[C@H](C[C@@H]1C4)O2
Stability (Liver [3]): Stable
Stability [4]: Stable
MIC (Staphylococcus aureus): > 64 µg/mL
Drug uptake (Kidney [5]): Active
Drug uptake (Plasma [6]): Active
Drug uptake [7]: Active
Drug uptake (Liver [8]): Active
Stability (Plasma [9]): Stable
Stability (Kidney [10]): Stable
MIC (Micrococcus luteus): > 64 µg/mL

half-life [11]: 13.2 min
Stability [12]: Stable
Stability (Liver [3]): Unstable
Stability (Lung [13]): Stable
Stability [4]: Unstable
Drug uptake (Kidney [5]): Active
Stability (Brain): Stable
Cmax [14]: 4 µM
bioavailability [15]: 10%
Drug uptake [16]: Active
Kp at 1 h [17]: 3.8
Kp at 1 h [18]: 0.1
Kp at 1 h [19]: 0.4
Drug uptake (Plasma [6]): Active
clearance [20]: 23 mL/min/kg
Drug uptake (Liver [8]): Active
Kp at 1 h [21]: 1.4
half-life [22]: 78 min
Stability [23]: Stable
Cmax [24]: 11 µM
Drug uptake [25]: Not Active
Drug uptake (Lung [26]): Active
Stability (Plasma [9]): Unstable
Stability (Kidney [10]): Unstable
Vd [27]: 0.46 L/kg
AUC (Mus musculus [28]): 6.8 µM·h
AUC (Mus musculus [29]): 2.3 µM·h
SMILES: C=C1C[C@@]23C=CC(=O)[C@@](C)(CCC(=O)Nc4c(O)ccc(C(=O)O)c4O)[C@@H]2C[C@@H]1CC3 [PLATENCIN]
